Measured values as given in patent US7138231B2 (priority 2000, dated 2006).
“Also recorded” adds a separate entry of the source. Like-named read-outs stand apart in the source and are kept apart here.

Legend:
[1] = test system: HIV-1; conditions: cited from earlier work
[2] = test system: HIV-1 variants with protease substitutions; conditions: cited from earlier work
[3] = test system: HIV-1 patient viruses with protease L90M; assay: Phenotypic susceptibility profiles of 58 patient virus samples with L90M, no other primary mutations; format: cell-based; conditions: {}
[4] = target: HIV-1 protease mutants (I50V, M46I/I47V/I50V, L10F, M46I, I47V) (Human immunodeficiency virus type 1 group M subtype B, UniProt P04585, I538V); conditions: I50V single-mutant protease; cited from earlier work
[5] = test system: HIV-1 protease mutants (I50V, M46I/I47V/I50V, L10F, M46I, I47V); conditions: single mutants L10F, M46I, and I47V; cited from earlier work
[6] = target: HIV-1 protease mutants (I50V, M46I/I47V/I50V, L10F, M46I, I47V) (Human immunodeficiency virus type 1 group M subtype B, UniProt P04585, I535V/I538V/M534I); conditions: triple mutant M46I/I47V/I50V; cited from earlier work
[7] = test system: HIV-1 patient-derived protease and reverse transcriptase segments (N88S in PR) in resistance test vectors; assay: Phenotypic drug susceptibility test with resistance test vectors from patient samples; format: cell-based; conditions: for Fold Change vs. reference: N88S
[8] = test system: HIV-1 protease site-directed mutants (N88S, L63P, V77I, M46L) in resistance test vector; assay: Phenotypic susceptibility assay of resistance test vectors with site-directed mutations in PR
From the text: The resistance test vectors containing a functional luciferase gene cassette were constructed and host cells were transfected with the resistance test vector DNA. […] The resistance test vector viral particles produced by transfecting the resistance test vector DNA into host cells, either in the presence or absence of protease inhibitors, were used to infect target host cells grown either in the absence of NRTI or NNRTI or in the presence of increasing concentrations of the drug. Luciferase activity in infected target host cells in the presence of drug was compared to the luciferase activity in infected target host cells in the absence of drug. […] The IC50 values were determined by plotting percent drug inhibition vs. log10 drug concentration.
Host cells were seeded in 10-cm-diameter dishes and were transfected one day after plating with resistance test vector plasmid DNA and the envelope expression vector. Transfections were performed using a calcium-phosphate co-precipitation procedure. The cell culture media containing the DNA precipitate was replaced with fresh medium, from one to 24 hours, after transfection. Cell culture media containing resistance test vector viral particles was harvested one to four days after transfection and was passed through a 0.45-mm filter before being stored at −80° C. HIV capsid protein (p24) levels in the harvested cell culture media were determined by an EIA method as described by the manufacturer (SIAC; Frederick, Md.). Before infection, target cells (293 and 293/T) were plated in cell culture media. Control infections were performed using cell culture media from mock transfections (no DNA) or transfections containing the resistance test vector plasmid DNA without the envelope expression plasmid. One to three or more days after infection the media was removed and cell lysis buffer (Promega) was added to each well. Cell lysates were assayed for luciferase activity. The inhibitory effect of the drug was determined using the following equation: % luciferase inhibition=[1−(RLUluc[drug]RLUluc)]×100 where RLUluc [drug] is the relative light unit of luciferase activity in infected cells in the presence of drug and RLUluc is the Relative Light Unit of luciferase activity in infected cells in the absence of drug. IC50 values were obtained from the sigmoidal curves that were generated from the data by plotting the percent inhibition of luciferase activity vs. the log10 drug concentration.
Mutations are introduced into the resistance test vector through any of the widely known methods for site-directed mutagenesis. […] A resistance test vector containing the specific mutation or group of mutations are then tested using the phenotypic susceptibility assay described above and the susceptibility profile is compared to that of a genetically defined wild-type (drug susceptible) resistance test vector which lacks the specific mutations.
Resistance test vectors were constructed containing the N88S mutation alone and in combination with other substitutions in PR (L63P, V77I and M46L) known to modulate the HIV susceptibility to PRIs. Mutations were introduced into the resistance test vector using the mega-primer PCR method for site-directed mutagenesis.

[9] = test system: HIV-1 patient viruses with protease L90M; assay: Phenotypic susceptibility profiles of 333 patient virus samples with L90M (not 30 or 50); format: cell-based
[10] = test system: HIV-2; conditions: cited from earlier work

CC(C)CN(C[C@@H](O)[C@H](Cc1ccccc1)NC(=O)O[C@H]1CCOC1)S(=O)(=O)c1ccc(N)cc1 [amprenavir]
IC50 ([1]; read-out: IC50): 80 nM
IC50 ([1]; read-out: mean IC50): 12 nM
decrease in susceptibility ([2]; I50V as a single mutation): two- to threefold
resistance of selected variants ([2]; in vitro passage, L10F, M46I, I47V, I50V): 100 fold
change in susceptibility ([2]; other substitutions as single mutations in HXB2): did not result in reduced susceptibility
fold less susceptible than wild-type virus ([2]; triple mutant clone M46I, I47V, I50V): 20 fold
Percent of viruses with indicated primary mutation(s) which are drug sensitive (fold change in IC50 < 2.5) [3]: 65.5%
fold reduction in the inhibition constant (Kl) compared to wild-type enzyme [4]: 80 fold
affinity [5]: did not display reduced affinity
fold-reduced Kl compared to wild-type enzyme [6]: 270 fold
Fold Change vs. reference ([7]; patient sample 360, prior PRI IDV, PR I13V, K20M, M36V, N37A, M46I, I62V, L63P, I93L): 0.15 fold
Fold Change vs. reference ([7]; patient sample 627, prior PRI IDV, PR I13I/V, E35D, M46L, L63P, I64V, I73V): 0.09 fold
Fold Change vs. reference ([7]; patient sample 0732, prior PRI NFV, PR K14R, I15V, K20T, E35D, M36I, R41K, I62V, L63Q): 0.08 fold
Fold Change vs. reference ([7]; patient sample 0910, prior PRI NFV, PR M46I, L63P, V77I, I93I/L): 0.16 fold
Fold Change vs. reference ([7]; patient sample 1208, prior PRI NFV, PR I62V, L63P, V77I): 0.10 fold
Fold Change vs. reference ([7]; patient sample 3542, prior PRI IDV, PR I13V, K14R, N37D, M46I, L63P, I93L): 0.16 fold
Fold Change vs. reference ([7]; patient sample 3654, PR I13V, R41K, M46I, L63P, V77I, I93L): 0.20 fold
change in susceptibility ([7]; patient sample RTV-360): increase
change in susceptibility ([7]; patient sample RTV-627): increase
change in susceptibility ([7]; patient sample RTV-0732): increase; also recorded: increased susceptibility
change in susceptibility ([7]; patient sample RTV-0910): increase
change in susceptibility ([7]; patient sample RTV-1208): increase
change in susceptibility ([7]; patient sample RTV-3542): increase
change in susceptibility ([7]; patient sample RTV-3654): increase
change in susceptibility compared to wild type control RTV ([8]; L63P-N88S-RTV): increase in the susceptibility
change in susceptibility compared to wild type control RTV ([8]; L63P-V77I-N88S-RTV): increase in the susceptibility; also recorded: increased susceptibility
change in susceptibility compared to wild type control RTV ([8]; M46L-L63P-N88S-RTV): increase in the susceptibility
change in susceptibility compared to wild type control RTV ([8]; M46L-L63P-V77I-N88S-RTV): increase in the susceptibility
change in susceptibility compared to wild type control RTV ([8]; N88S-RTV): more susceptible
Fold Change vs. reference ([8]; site-directed mutation N88S): 0.04 fold
Fold Change vs. reference ([8]; site-directed mutations L63P): 1.06 fold
Fold Change vs. reference ([8]; site-directed mutations L63P, N88S): 0.11 fold
Fold Change vs. reference ([8]; site-directed mutations L63P, V77I): 0.91 fold
Fold Change vs. reference ([8]; site-directed mutations L63P, V77I, N88S): 0.08 fold
Fold Change vs. reference ([8]; site-directed mutations M46L, L63P, N88S): 0.12 fold
Fold Change vs. reference ([8]; site-directed mutations M46L, L63P, V77I, N88S): 0.14 fold
wt % > 2.5 ([9]; Amprenavir FC>2.5, L90M, position 10 wild type): 30.8%
wt % > 2.5 ([9]; Amprenavir FC>2.5, L90M, position 15 wild type): 63.6%
wt % > 2.5 ([9]; Amprenavir FC>2.5, L90M, position 33 wild type): 57.4%
wt % > 2.5 ([9]; Amprenavir FC>2.5, L90M, position 36 wild type): 55.3%
wt % > 2.5 ([9]; Amprenavir FC>2.5, L90M, position 46 wild type): 46.2%
wt % > 2.5 ([9]; Amprenavir FC>2.5, L90M, position 53 wild type): 57.6%
wt % > 2.5 ([9]; Amprenavir FC>2.5, L90M, position 54 wild type): 47.5%
wt % > 2.5 ([9]; Amprenavir FC>2.5, L90M, position 58 wild type): 58.7%
wt % > 2.5 ([9]; Amprenavir FC>2.5, L90M, position 62 wild type): 55.3%
wt % > 2.5 ([9]; Amprenavir FC>2.5, L90M, position 74 wild type): 62.5%
wt % > 2.5 ([9]; Amprenavir FC>2.5, L90M, position 82 wild type): 53.5%
wt % > 2.5 ([9]; Amprenavir FC>2.5, L90M, position 84 wild type): 48.5%
wt % > 2.5 ([9]; Amprenavir FC>2.5, L90M, position 89 wild type): 59.3%
wt % > 2.5 ([9]; Amprenavir FC>2.5, L90M, position 92 wild type): 58.6%
wt % > 2.5 ([9]; Amprenavir FC>2.5, L90M, position 95 wild type): 58.7%
mt % > 2.5 ([9]; Amprenavir FC>2.5, listed as 90: all samples with L90M): 60.4%
wt % > 10 ([9]; Amprenavir FC>10, L90M, position 10 wild type): 2.6%
wt % > 10 ([9]; Amprenavir FC>10, L90M, position 13 wild type): 10.9%
wt % > 10 ([9]; Amprenavir FC>10, L90M, position 32 wild type): 11.7%
wt % > 10 ([9]; Amprenavir FC>10, L90M, position 33 wild type): 8.4%
wt % > 10 ([9]; Amprenavir FC>10, L90M, position 46 wild type): 8.3%
wt % > 10 ([9]; Amprenavir FC>10, L90M, position 47 wild type): 11.9%
wt % > 10 ([9]; Amprenavir FC>10, L90M, position 53 wild type): 11.5%
wt % > 10 ([9]; Amprenavir FC>10, L90M, position 54 wild type): 5.9%
wt % > 10 ([9]; Amprenavir FC>10, L90M, position 55 wild type): 11.6%
wt % > 10 ([9]; Amprenavir FC>10, L90M, position 66 wild type): 11.9%
wt % > 10 ([9]; Amprenavir FC>10, L90M, position 69 wild type): 14.2%
wt % > 10 ([9]; Amprenavir FC>10, L90M, position 84 wild type): 8.7%
% > 10 ([9]; Amprenavir FC>10, listed as 90: all samples with L90M): 12.9%
Percent of viruses with indicated primary mutation(s) with reduced susceptibility (fold change in IC50 > 2.5) ([9]; L90M): 60.4%
Percent of viruses with indicated primary mutation(s) with reduced susceptibility (fold change in IC50 > 10) ([9]; L90M): 12.9%
IC50 [10]: 340 nM
